Measurements: patent US6806230B1, “Pyrimidine derivatives and herbicides containing them” (Kumiai Chemical Industry Co., Ltd., priority 1999, dated 2004)

Assays:
Type in all cases: in vivo
barnyard grass (Eo) [1] = test: Test Example 1: herbicidal effects by flooded paddy field treatment; parameters: herbicidal effects, Eo (barnyard grass):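 0-5 growth inhibition grade; 5 = over 90%; 4 = 70-90%; 3 = 50-70%; 2 = 30-50%; 1 = 10-30%; 0 = under 10%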; settings: for herbicidal effects, Eo (barnyard grass): dose 100 g active ingredient per 10 ares, examined on the 21st day after treatment, standards of Table 44; for Herbicidal effect index, Eo: dose 100 gai/10a, examined on 21st day after treatment, index 0-5 per Table 44;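 as to Herbicidal effect index, Eo: 0-5 growth inhibition grade; 5 = over 90%; 4 = 70-90%; 3 = 50-70%; 2 = 30-50%; 1 = 10-30%; 0 = under 10%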
Summary of the method: (§1)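 Herbicidal effect scored 21 days post-treatment after greenhouse cultivation. Treatment was applied dropwise to the water surface, one day after sowing, as a diluted wettable powder (100 g a.i./10 ares). Pots held puddled paddy soil under 3 cm water.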

monochoria (Mo) [2] = test: as above; parameters: herbicidal effects, Mo (monochoria):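 0-5 growth inhibition grade; 5 = over 90%; 4 = 70-90%; 3 = 50-70%; 2 = 30-50%; 1 = 10-30%; 0 = under 10%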; settings: for herbicidal effects, Mo (monochoria): dose 100 g active ingredient per 10 ares, examined on the 21st day after treatment, standards of Table 44; for Herbicidal effect index, Mo: dose 100 gai/10a, examined on 21st day after treatment, index 0-5 per Table 44
Summary of the method: as §1

barnyard grass (Ec) [3] = test: Test Example 2: herbicidal effects by upland soil treatment; parameters: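 0-5 growth inhibition grade; 5 = over 90%; 4 = 70-90%; 3 = 50-70%; 2 = 30-50%; 1 = 10-30%; 0 = under 10%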; settings: dose 100 g active ingredient per 10 ares, examined on the 21st day after treatment, standards of Table 44
Summary of the method: (§2)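 Pre-emergence test: barnyard grass and green foxtail sown in upland soil, then soil surface sprayed with wettable-powder formulation at 100 g active ingredient per 10 ares (100 l per 10 ares). Grown in greenhouse; herbicidal effect scored on a rating scale 21 days after treatment.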

green foxtail (Se) = test: as above; settings: dose 100 g active ingredient per 10 ares, examined on the 21st day after treatment, standards of Table 44;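 also: 0-5 growth inhibition grade; 5 = over 90%; 4 = 70-90%; 3 = 50-70%; 2 = 30-50%; 1 = 10-30%; 0 = under 10%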
Summary of the method: as §2

barnyard grass (Ec) [4] = test: Test Example 3: herbicidal effects by foliage treatment in upland field; parameters: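 0-5 growth inhibition grade; 5 = over 90%; 4 = 70-90%; 3 = 50-70%; 2 = 30-50%; 1 = 10-30%; 0 = under 10%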; settings: dose 100 g active ingredient per 10 ares, examined on the 14th day after treatment
Summary of the method: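 Barnyard grass and green foxtail were grown in upland soil for 2 weeks in a greenhouse. A water-diluted wettable powder was sprayed over the foliage at 100 l per 10 ares, giving 100 g active ingredient per 10 ares. Herbicidal effect was scored on day 14 after treatment.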

barnyard grass (Eo) [5] = test: Test Example 4: selectivity for a crop plant by flooded paddy field treatment; parameters: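 0-5 growth inhibition grade; 5 = over 90%; 4 = 70-90%; 3 = 50-70%; 2 = 30-50%; 1 = 10-30%; 0 = under 10%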; settings: barnyard grass, dose 25 gai/10a, 21st day after treatment, index per Table 44
Summary of the method: (§3)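 Flooded-paddy treatment: the wettable powder formulation, diluted in water, was applied dropwise to 3 cm floodwater at 25 g a.i./10 ares one day after sowing barnyard grass and monochoria and transplanting rice at the second leaf stage. Greenhouse grown; herbicidal effect rated against set standards on day 21.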

monochoria (Mo) [6] = test: as above; parameters: scale not given here; settings: monochoria, dose 25 gai/10a, 21st day after treatment, index per Table 44
Summary of the method: as §3

rice (Or) = test: as above; parameters: scale not given here; settings: rice transplanted at second leaf stage, dose 25 gai/10a, 21st day after treatment, index per Table 44
Summary of the method: as §3
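For Herbicidal effect index, Mo in this document: 0-5 growth inhibition grade; 5 = over 90%; 4 = 70-90%; 3 = 50-70%; 2 = 30-50%; 1 = 10-30%; 0 = under 10%.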

| SMILES | herbicidal effects, Eo (barnyard grass) (barnyard grass (Eo) [1]) | herbicidal effects, Mo (monochoria) (monochoria (Mo) [2]) | herbicidal effects, Ec (barnyard grass) (barnyard grass (Ec) [3]) | herbicidal effects, Se (green foxtail) (green foxtail (Se)) | Ec (herbicidal effects, index) (barnyard grass (Ec) [4]) | Herbicidal effect index, Eo (barnyard grass (Eo) [1]) | Herbicidal effect index, Mo (monochoria (Mo) [2]) | Eo (herbicidal effect index) (barnyard grass (Eo) [5]) | Mo (herbicidal effect index) (monochoria (Mo) [6]) | Or (herbicidal effect index on crop) (rice (Or)) |
| --- | --- | --- | --- | --- | --- | --- | --- | --- | --- | --- |
| COc1ccc(C(C)C(=O)N(C)C(c2cncnc2C(F)(F)F)C(C)C)cc1 (mixture of isomers) [1-192] | 5 | 5 | 5 | 5 | 4 |  |  |  |  |  |
| CC(C(=O)N(C)C(c1cncnc1C(F)(F)F)C(C)C)c1ccccc1 (mixture of isomers) [1-195] | 5 | 5 | 5 | 5 | 5 |  |  |  |  |  |
| CC(C(=O)N(C)C(c1cncnc1C(F)(F)F)C(C)C)c1ccc(F)cc1 (mixture of isomers) [1-198] | 5 | 5 | 5 | 5 | 4 |  |  |  |  |  |
| CCC(C)C(c1cncnc1C(F)(F)F)N(C)C(=O)Cc1ccccc1 (mixture of isomers) [Compound 1-57] |  |  | 5 | 5 | 5 | 5 | 5 |  |  |  |
| CN(C(=O)Cc1ccccc1)C(c1ccccc1)c1cncnc1C(F)(F)F (racemic) [1-186] | 5 | 5 | 5 | 5 | 5 |  |  |  |  |  |
| C#CCN(C(=O)Cc1ccccc1)C(c1cncnc1C(F)(F)F)C(C)C (racemic) [1-193] | 5 | 5 | 5 | 5 | 5 |  |  |  |  |  |
| C#CCN(C(=O)Cc1ccc(Cl)cc1)C(c1cncnc1C(F)(F)F)C(C)C (racemic) [1-194] | 5 | 5 | 5 | 5 | 5 |  |  |  |  |  |
| CN(C(=O)Cc1ccccc1)C(c1cncnc1C(F)(F)F)C(C)(C)C (racemic) [1-196] | 5 | 5 | 5 | 5 | 5 |  |  |  |  |  |
| CC(C)c1ncncc1C(c1ccccc1)N(C)C(=O)Cc1ccc(F)cc1 (racemic) [1-214] | 5 | 5 | 5 | 5 | 4 |  |  |  |  |  |
| COc1ccc(CC(=O)N(C)C(c2cncnc2C(F)(F)F)C(C)C)cc1 (racemic) [Compound 1-9] |  |  | 5 | 5 | 5 | 5 | 5 |  |  |  |
| CC(C)C(c1cncnc1C(F)(F)F)N(C)C(=O)Sc1ccccc1 (racemic) [Compound 1-10] |  |  | 4 | 4 | 4 | 5 | 5 |  |  |  |
| CC(C)C(c1cncnc1C(F)(F)F)N(C)C(=O)Cc1ccc(F)cc1 (racemic) [Compound 1-12] |  |  | 5 | 5 | 5 | 5 | 5 |  |  |  |
| CC(C)C(c1cncnc1C(F)(F)F)N(C)C(=O)Cc1ccc(C(F)(F)F)cc1 (racemic) [Compound 1-24] |  |  | 5 | 5 | 4 | 5 | 5 |  |  |  |
| CCN(C(=O)Cc1ccc(F)cc1)C(c1cncnc1C(F)(F)F)C(C)C (racemic) [Compound 1-27] |  |  | 5 | 5 | 4 | 5 | 5 |  |  |  |
| CC(C)C(c1cncnc1C(F)(F)F)N(C)C(=O)Cc1cccc(F)c1 (racemic) [Compound 1-66] |  |  | 5 | 5 | 5 | 5 | 5 |  |  |  |
| Cc1ncncc1C(C(C)C)N(C)C(=O)Cc1ccc(F)cc1 (racemic) [Compound 1-88] |  |  | 5 | 5 | 4 | 5 | 5 |  |  |  |
| CN(C(=O)Cc1ccc(F)cc1)C(c1cncnc1C(F)(F)Cl)C1CC1 (racemic) [Compound 1-92] |  |  | 5 | 5 | 5 |  |  |  |  |  |
| CC(C)C(c1cncnc1C(F)(F)F)N(C)C(=O)Cc1ccc(F)cc1F (racemic) [Compound 1-147] | 5 | 5 | 5 | 5 |  |  |  | 5 | 5 | 1 |
| CSc1ncncc1C(C(C)C)N(C)C(=O)Cc1ccccc1 (racemic) [Compound 1-150] | 5 | 5 | 5 | 5 |  |  |  | 5 | 5 | 1 |
| Cc1ncncc1C(N(C)C(=O)Cc1ccc(Cl)cc1)C(C)(C)C (racemic) [Compound 1-161] | 5 | 5 | 5 | 5 |  |  |  | 5 | 5 | 0 |
| Cc1ccc(CC(=O)N(C)C(c2cncnc2C)C(C)(C)C)cc1 (racemic) [Compound 1-162] | 5 | 5 | 5 | 4 |  |  |  | 5 | 5 | 0 |
| Cc1ccc(CC(=O)N(C)C(c2cncnc2C(F)F)C(C)C)cc1 (racemic) [Compound 1-166] | 5 | 5 | 5 | 5 |  |  |  | 5 | 5 | 1 |
| CC(C)C(c1cncnc1C(F)(F)F)N(C)C(=O)Cc1cc(F)cc(F)c1 (racemic) [Compound 1-167] | 5 | 5 | 5 | 5 |  |  |  | 5 | 5 | 1 |
| CCN(C(=O)Cc1ccccc1)C(c1cncnc1C(F)F)C(C)C (racemic) [Compound 1-168] | 5 | 5 | 5 | 5 |  |  |  | 5 | 5 | 1 |
| CCN(C(=O)Cc1ccc(F)cc1)C(c1cncnc1C(F)F)C(C)C (racemic) [Compound 1-169] | 5 | 5 | 5 | 5 |  |  |  | 5 | 5 | 1 |
| CCN(C(=O)Cc1ccc(Cl)cc1)C(c1cncnc1C(F)F)C(C)C (racemic) [Compound 1-170] | 5 | 5 | 5 | 5 |  |  |  | 5 | 5 | 1 |
| CCN(C(=O)Cc1ccc(C)cc1)C(c1cncnc1C(F)F)C(C)C (racemic) [Compound 1-171] | 5 | 5 | 5 | 4 |  |  |  | 5 | 5 | 1 |
